Results: article PMC11284787, “Ligand-Directed Labeling of the Adenosine A1 Receptor in Living Cells” (Journal of Medicinal Chemistry, 2024)

Columns and labels:
NL-hA3AR [1] = target: T1, NL-hA3AR (Homo sapiens, UniProt P0DMS8); assay: NanoBRET saturation ligand-binding assay, NL-hA3AR
T1 construct: expressed in transfected cells
T1 sequence (P0DMS8 1-318): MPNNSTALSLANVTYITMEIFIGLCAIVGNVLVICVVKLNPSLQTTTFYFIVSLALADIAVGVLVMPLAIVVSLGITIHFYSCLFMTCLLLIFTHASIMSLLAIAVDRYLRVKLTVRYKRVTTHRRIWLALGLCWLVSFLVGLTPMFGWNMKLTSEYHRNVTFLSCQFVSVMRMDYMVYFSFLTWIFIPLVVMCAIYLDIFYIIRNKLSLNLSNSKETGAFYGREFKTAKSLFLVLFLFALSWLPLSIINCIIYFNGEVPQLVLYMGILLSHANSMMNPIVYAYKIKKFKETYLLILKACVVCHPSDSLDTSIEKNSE
Experimental: Probes 11 and 12 were further evaluated for their ability to bind the other three adenosine receptor subtypes (NL-A2AAR, NL-A2BAR, and NL-A3AR), and their ligand-binding properties were quantified in the NanoBRET saturation and inhibition binding assays, respectively (Table 1 and Figure 4).
NanoBRET binding assay. All NanoBRET experiments were performed in white flat […]
37 °C for kinetic binding experiments. Emissions were read at 420 nm (80 nm bandpass; […]
the SulfoCy5-labelled probe. […]
nm emission by the 420 nm emission. The term “raw BRET ratio” refers to the unprocessed data as no background ratio has been subtracted. In all NanoBRET binding […]
competitive antagonist selective for the adenosine receptor under investigation […]
MRS1220 for the A3AR). HEK293T cells stably/transiently expressing Nluc-AR were […]
were incubated for 1 h at 37 °C. […]
NanoBRET saturation binding assay. Total and nonspecific saturation binding curves were fit simultaneously using the following equation:
BRET ratio = Bmax[B] + M(B) + C […]
Uninhibited specific binding = 100 ― 100 x [A]

TS-SNAP-A1AR = test system: T2, TS-SNAP-A1AR; assay: SDS-PAGE in-gel fluorescence of labeled TS-SNAP-A1AR; assay type: cell-based; conditions: HEK293G TS-SNAP-A1AR cells, 300 nM 11 or 130 nM 12 (then 1 μM Met-Tet-SulfoCy5), 2 h; band at ca. 59.1 kDa
T2 construct: signal peptide of the murine 5HT3A receptor (N); expressed in transfected cells; receptor purified on MagStrep beads after labelling in cells
Experimental: Figure 3 Molecular pharmacology and biochemical characterization of 11 and 12. NanoBRET ligand-binding data were measured in HEK293 cells stably expressing the human NL-A1AR (A–C) or rat NL-A1AR (D–F). […] Data were normalized to maximal BRET signals in the absence of unlabeled competing ligands (total binding, TB). (C, F) NanoBRET dissociation kinetics experiments with 11 (SulfoCy5) performed in human and rat NL-A1AR HEK293T cells, respectively. Cells were treated with 250 nM 11 (SulfoCy5, lilac open circles) for 5 h and CA200645 (black open triangles) for 2 h. […] TS-SNAP-A1AR was purified and separated on an SDS-PAGEgel gel, and direct Cy5 fluorescence was visualized using in-gel fluorescence. […]
The small reduction in the BRET signal observed toward the end of the reads could be mostly likely ascribed to substrate (furimazine) consumption. […] To confirm covalent labeling of A1AR by 11 and 12, HEK293G cells stably expressing a Twin-Strep-SNAP-A1AR(TS-SNAP-A1R) construct were treated with 11 or 12 prior to purification, separation by sodium dodecyl sulfate-polyacrylamide gel electrophoresis (SDS-PAGE) and visualization of labeled samples by in-gel fluorescence (Figure 3G). […]
Autocorrelation curves (AC) were constructed from fluorescence fluctuation traces and analysed within Zen Black (2012) software. […]

NL-hA3AR [2] = target: T1, NL-hA3AR; assay: cell-based; assay type: binding; conditions: CA200645 (25 nM) tracer, HEK293T cells, mean ± SEM; read-out: affinity values pKi, NL-hA3AR (converted)

For CCCCn1c(=O)c2[nH]c(C34CCC(C(=O)NCCNC(=O)CCNC(=O)c5ccc(OC(=O)CCCCC[N+]6=C(/C=C/C=C/C=C7/N(C)c8ccc(S(=O)(=O)O)cc8C7(C)C)C(C)(C)c7cc(S(=O)(=O)[O-])ccc76)c(F)c5)(CC3)CC4)nc2n(CCCC)c1=O [Compound 11, 1-(6-(4-((3-((2-(4-(1,3-Dibutyl-2,6-dioxo-2,3,6,7-tetrahydro-1H-purin-8-yl)bicyclo[2.2.2]octane-1-carboxamido)ethyl)amino)-3-oxopropyl)carbamoyl)-2-fluorophenoxy)-6-oxohexyl)-3,3-dimethyl-2-((1E,3E)-5-((E)-1,3,3-trimethyl-5-sulfoindolin-2-ylidene)penta-1,3-dien-1-yl)-3H-indol-1-ium-5-sulfonate], the Kd (NL-hA3AR [1]; HEK293T cells stably expressing NL-hA3AR, read-out: affinity values pKD, NL-hA3AR (converted)) was > 1000 nM, the “BRET signal detected at NL-A3AR” value (NL-hA3AR [1]; concentrations tested 0–500 nM) was “minimal BRET signal” and the “in-gel Cy5 fluorescence band of SulfoCy5-labeled TS-SNAP-A1AR” value (TS-SNAP-A1AR) was “strong band”.

With CCCCn1c(=O)c2[nH]c(C34CCC(C(=O)NCCNC(=O)CCNC(=O)c5ccc(OC(=O)CCC(=O)NCCOCCOCCNC(=O)O[C@H]6CC/C=C/CCC6)c(F)c5)(CC3)CC4)nc2n(CCCC)c1=O [Compound 12, 4-((3-((2-(4-(1,3-Dibutyl-2,6-dioxo-2,3,6,7-tetrahydro-1H-purin-8-yl)bicyclo[2.2.2]octane-1-carboxamido)ethyl)amino)-3-oxopropyl)carbamoyl)-2-fluorophenyl (R,E)-1-(Cyclooct-4-en-1-yloxy)-1,12-dioxo-5,8-dioxa-2,11-diazapentadecan-15-oate] the “in-gel Cy5 fluorescence band of SulfoCy5-labeled TS-SNAP-A1AR” value (TS-SNAP-A1AR) was “strong band” and the Ki (NL-hA3AR [2]) was > 10 µM.
